The values below are quoted from earlier work in patent US20110039930A1 (Emisphere Technologies, Inc., priority 2009, published 2011).

For the data set the following is noted: bleeding, ulceration, perforation of the stomach or intestines.

`COc1ccc2cc(C(C)C(=O)O)ccc2c1` (stereo not shown) [Naproxen, 2-(6-methoxynaphthalen-2-yl)propanoic acid]: the gastrointestinal adverse events result is recorded as “increased risk of serious gastrointestinal adverse events”.
